Source: patent US9156796B2, “Benzoimidazole-carboxylic acid amide derivatives as APJ receptor modulators” (SANOFI, priority 2013, dated 2015)

Molecular target: T1, human apelin receptor (Homo sapiens, UniProt P35414)
T1 construct: expressed in transfected cells
T1 sequence (P35414 1-380): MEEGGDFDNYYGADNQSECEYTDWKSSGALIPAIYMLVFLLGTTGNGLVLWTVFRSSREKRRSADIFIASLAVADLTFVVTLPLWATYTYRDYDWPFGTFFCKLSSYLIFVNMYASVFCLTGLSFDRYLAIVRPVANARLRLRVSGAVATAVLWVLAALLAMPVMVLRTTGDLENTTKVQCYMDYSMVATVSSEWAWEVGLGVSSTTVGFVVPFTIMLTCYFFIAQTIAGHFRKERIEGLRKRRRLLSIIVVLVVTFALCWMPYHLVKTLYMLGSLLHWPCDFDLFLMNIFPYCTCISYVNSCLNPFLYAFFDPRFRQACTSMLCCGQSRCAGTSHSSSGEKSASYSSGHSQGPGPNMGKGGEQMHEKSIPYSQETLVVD
Assay: Determination of agonism on the human apelin receptor by a calcium fluorescence assay (FLIPR)
Type: cell-based
Conditions: HEK293 cells stably transfected with human apelin receptor and Giaq protein, Fluo-4 calcium fluorescence, read-out: EC50 (APJ agonism)
Procedure, shortened: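 HEK293 cells stably co-expressing human apelin receptor and promiscuous Giaq, loaded 1 h at 37 °C with Fluo-4 (4 μM) in probenecid-containing Hepes buffer, pH 7.4. Compounds, at least 7 concentrations in triplicate, added in FLIPR Tetra; peak calcium fluorescence normalized to 1 μM apelin-13 as 100% to derive EC50.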

SMILES	EC50
CCC(CC)n1c(Cc2cccs2)nc2cc(C(=O)N[C@@H](CC(C)C)C(=O)N3CCN(CC(C)C)CC3)ccc21 [Example 272, 1-(1-Ethyl-propyl)-2-thiophen-2-ylmethyl-1H-benzoimidazole-5-carboxylic acid [(S)-1-(4-isobutyl-piperazine-1-carbonyl)-3-methyl-butyl]-amide]	2770 nM
CCC(CC)n1c(Cc2cccs2)nc2cc(C(=O)N[C@@H](CC(C)C)C(=O)NC3C[C@H]4CC[C@@H](C3)N4C)ccc21 (stereo partly drawn) [Example 273, 1-(1-Ethyl-propyl)-2-thiophen-2-ylmethyl-1H-benzoimidazole-5-carboxylic acid [(S)-3-methyl-1-((1R,5S)-8-methyl-8-aza-bicyclo[3.2.1]oct-3-ylcarbamoyl)-butyl]-amide]	212 nM
CCC(CC)n1c(Cc2cccs2)nc2cc(C(=O)N[C@@H](CC(C)C)C(=O)N3CCCN(Cc4c(F)cccc4Cl)CC3)ccc21 [Example 274, 1-(1-Ethyl-propyl)-2-thiophen-2-ylmethyl-1H-benzoimidazole-5-carboxylic acid {(S)-1-[4-(2-chloro-6-fluoro-benzyl)-[1,4]diazepane-1-carbonyl]-3-methyl-butyl}-amide]	12600 nM
CCC(CC)n1c(Cc2cccs2)nc2cc(C(=O)N[C@@H](CC(C)C)C(=O)NCC3CCCN4CCCCC34)ccc21 (stereo partly drawn) [Example 275, 1-(1-Ethyl-propyl)-2-thiophen-2-ylmethyl-1H-benzoimidazole-5-carboxylic acid {(S)-3-methyl-1-[(octahydro-quinolizin-1-ylmethyl)-carbamoyl]-butyl}-amide]	242 nM
CCC(CC)n1c(Cc2cccs2)nc2cc(C(=O)N[C@@H](CC(C)C)C(=O)N[C@H]3C[C@H]4CC[C@@H](C3)N4C)ccc21 [Example 276, 1-(1-Ethyl-propyl)-2-thiophen-2-ylmethyl-1H-benzoimidazole-5-carboxylic acid [(S)-3-methyl-1-((3R)-8-methyl-8-aza-bicyclo[3.2.1]oct-3-ylcarbamoyl)-butyl]-amide]	105 nM
CCC(CC)n1c(Cc2cccs2)nc2cc(C(=O)N[C@@H](CC(C)C)C(=O)NCCCN3CCN(Cc4c(F)cccc4Cl)CC3)ccc21 [Example 277, 1-(1-Ethyl-propyl)-2-thiophen-2-ylmethyl-1H-benzoimidazole-5-carboxylic acid ((S)-1-{3-[4-(2-chloro-6-fluoro-benzyl)-piperazin-1-yl]-propylcarbamoyl}-3-methyl-butyl)-amide]	2100 nM
CCC(CC)n1c(Cc2cccs2)nc2cc(C(=O)N[C@@H](CC(C)C)C(=O)NCCCN3CCN(CC)CC3)ccc21 [Example 278, 1-(1-Ethyl-propyl)-2-thiophen-2-ylmethyl-1H-benzoimidazole-5-carboxylic acid {(S)-1-[3-{4-ethyl-piperazin-1-yl)-propylcarbamoyl]-3-methyl-butyl}-amide]	405 nM
CCC(CC)n1c(Cc2cccs2)nc2cc(C(=O)N[C@@H](CC(C)C)C(=O)NCCCN3CCN(c4ccc(OC)cc4)CC3)ccc21 [Example 279, 1-(1-Ethyl-propyl)-2-thiophen-2-ylmethyl-1H-benzoimidazole-5-carboxylic acid ((S)-1-{3-[4-(4-methoxy-phenyl)-piperazin-1-yl]-propylcarbamoyl}-3-methyl-butyl)-amide]	2270 nM
CCC(CC)n1c(Cc2cccs2)nc2cc(C(=O)N[C@@H](CC(C)C)C(=O)N3CCC(N4CCN(C)CC4)CC3)ccc21 [Example 280, 1-(1-Ethyl-propyl)-2-thiophen-2-ylmethyl-1H-benzoimidazole-5-carboxylic acid {(S)-3-methyl-1-[4-(4-methyl-piperazin-1-yl)-piperidine-1-carbonyl]-butyl}-amide]	219 nM
CCC(CC)n1c(Cc2cccs2)nc2cc(C(=O)N[C@@H](CC(C)C)C(=O)N3CCC(N4CCCC(C)C4)CC3)ccc21 (stereo partly drawn) [Example 281, 1-(1-Ethyl-propyl)-2-thiophen-2-ylmethyl-1H-benzoimidazole-5-carboxylic acid [(S)-3-methyl-1-(3-methyl-[1,4′]bipiperidinyl-1′-carbonyl)-butyl]-amide]	1210 nM
